From patent US10781204B2, “TYK2 inhibitors and uses thereof” (Nimbus Lakshmi, Inc., priority 2015, dated 2020) come the findings set out here.

The target in one assay is TYK2 (Homo sapiens (Human), UniProt P29597). The experiment in a line: Tyk2 radioactive kinase assay. The assay is classed as biochemical. The conditions noted are these: ATP 10 μM. The essentials:
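Recombinant human TYK2 (Invitrogen) was mixed with 20 μM peptide substrate in a buffer of 20 mM Hepes pH 7.5, 10 mM MgCl2, 1 mM EGTA, 0.02% Brij35, 0.02 mg/mL BSA, 0.1 mM […], 2 mM DTT and 1% DMSO, and compounds in DMSO were added. Adding ^33P-ATP (10 μM ATP) started the reaction, which ran 120 min at room temperature. Mixtures were then spotted onto P81 ion-exchange paper, washed thoroughly in 0.75% phosphoric acid, and counted for radioactivity.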

The subject of assay [1] is JAK2-pSTAT5 (GM-CSF induced pSTAT5). The experiment in a line: GM-CSF induced pSTAT5 in human PBMC. Type of assay: cell-based. The conditions noted are these: Homo sapiens, PBMC, 20 min, 5 ng/mL GM-CSF. The method in brief: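 Thawed human PBMC, 200,000 per well in serum-containing medium, were preincubated 1 hr at 37 C with compound in 0.1% DMSO. GM-CSF at 5 ng/mL final was added for 20 minutes, then pSTAT5 and total STAT5 in lysates were measured by MSD immunoassay.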

For assay [2], the system named is Tyk2-pSTAT4 (IL-12 induced pSTAT4). The experiment in a line: IL-12 induced pSTAT4 in human PBMC. The assay is classed as cell-based. The following applies: Homo sapiens, PBMC, 0.5 h, 1.7 ng/mL IL-12, 30 minutes. The method in brief: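 pSTAT4 and total STAT4 quantified by MSD in cell lysates after 30 minutes of 1.7 ng/mL IL-12 stimulation. Beforehand, compound (0.1% DMSO final) sat 1 hr at 37 C on 200,000 thawed buffy-coat PBMC per well in serum-containing medium.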

The next assay addresses JAK2 (Homo sapiens (Human), UniProt O60674). The assay is described as follows: JAK2 radioactive kinase assay. The assay is classed as biochemical. The conditions noted are these: ATP 10 μM. The essentials: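 Radiometric assay in Hepes pH 7.5, MgCl2, EGTA, Brij35, BSA, DTT, 1% DMSO, with 10 μM [33P]ATP, 120 min at room temp; P81 paper capture and counting. […]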

TYK2, sequence (P29597 whole entry): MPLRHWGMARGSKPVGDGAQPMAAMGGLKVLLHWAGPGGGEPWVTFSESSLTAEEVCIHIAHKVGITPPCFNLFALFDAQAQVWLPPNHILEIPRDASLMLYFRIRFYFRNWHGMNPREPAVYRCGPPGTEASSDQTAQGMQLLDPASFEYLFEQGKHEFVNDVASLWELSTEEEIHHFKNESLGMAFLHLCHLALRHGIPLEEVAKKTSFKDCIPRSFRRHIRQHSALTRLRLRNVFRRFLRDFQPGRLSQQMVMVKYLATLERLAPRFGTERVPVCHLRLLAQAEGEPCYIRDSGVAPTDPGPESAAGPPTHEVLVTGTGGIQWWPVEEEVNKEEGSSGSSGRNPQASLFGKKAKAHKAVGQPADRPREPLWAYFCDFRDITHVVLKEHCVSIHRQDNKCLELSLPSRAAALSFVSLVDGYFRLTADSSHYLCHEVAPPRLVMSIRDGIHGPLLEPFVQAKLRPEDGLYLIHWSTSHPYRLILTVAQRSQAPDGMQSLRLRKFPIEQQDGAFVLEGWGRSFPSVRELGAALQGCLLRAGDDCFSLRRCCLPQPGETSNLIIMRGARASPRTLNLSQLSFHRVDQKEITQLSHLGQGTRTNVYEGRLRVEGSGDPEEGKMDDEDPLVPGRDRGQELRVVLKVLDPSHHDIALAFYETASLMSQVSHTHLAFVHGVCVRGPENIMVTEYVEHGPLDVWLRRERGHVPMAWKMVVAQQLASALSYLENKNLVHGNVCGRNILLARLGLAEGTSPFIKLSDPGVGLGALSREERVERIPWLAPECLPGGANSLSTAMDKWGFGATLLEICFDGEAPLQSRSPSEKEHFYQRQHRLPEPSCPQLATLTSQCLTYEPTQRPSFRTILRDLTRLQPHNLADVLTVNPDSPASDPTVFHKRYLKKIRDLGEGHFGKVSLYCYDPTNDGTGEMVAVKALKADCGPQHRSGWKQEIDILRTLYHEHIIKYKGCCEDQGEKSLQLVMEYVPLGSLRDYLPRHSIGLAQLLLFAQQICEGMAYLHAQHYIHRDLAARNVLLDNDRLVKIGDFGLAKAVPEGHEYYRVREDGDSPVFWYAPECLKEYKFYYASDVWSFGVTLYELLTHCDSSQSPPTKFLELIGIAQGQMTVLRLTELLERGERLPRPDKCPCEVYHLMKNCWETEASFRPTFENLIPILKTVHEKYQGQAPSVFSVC
JAK2, sequence (O60674 whole entry): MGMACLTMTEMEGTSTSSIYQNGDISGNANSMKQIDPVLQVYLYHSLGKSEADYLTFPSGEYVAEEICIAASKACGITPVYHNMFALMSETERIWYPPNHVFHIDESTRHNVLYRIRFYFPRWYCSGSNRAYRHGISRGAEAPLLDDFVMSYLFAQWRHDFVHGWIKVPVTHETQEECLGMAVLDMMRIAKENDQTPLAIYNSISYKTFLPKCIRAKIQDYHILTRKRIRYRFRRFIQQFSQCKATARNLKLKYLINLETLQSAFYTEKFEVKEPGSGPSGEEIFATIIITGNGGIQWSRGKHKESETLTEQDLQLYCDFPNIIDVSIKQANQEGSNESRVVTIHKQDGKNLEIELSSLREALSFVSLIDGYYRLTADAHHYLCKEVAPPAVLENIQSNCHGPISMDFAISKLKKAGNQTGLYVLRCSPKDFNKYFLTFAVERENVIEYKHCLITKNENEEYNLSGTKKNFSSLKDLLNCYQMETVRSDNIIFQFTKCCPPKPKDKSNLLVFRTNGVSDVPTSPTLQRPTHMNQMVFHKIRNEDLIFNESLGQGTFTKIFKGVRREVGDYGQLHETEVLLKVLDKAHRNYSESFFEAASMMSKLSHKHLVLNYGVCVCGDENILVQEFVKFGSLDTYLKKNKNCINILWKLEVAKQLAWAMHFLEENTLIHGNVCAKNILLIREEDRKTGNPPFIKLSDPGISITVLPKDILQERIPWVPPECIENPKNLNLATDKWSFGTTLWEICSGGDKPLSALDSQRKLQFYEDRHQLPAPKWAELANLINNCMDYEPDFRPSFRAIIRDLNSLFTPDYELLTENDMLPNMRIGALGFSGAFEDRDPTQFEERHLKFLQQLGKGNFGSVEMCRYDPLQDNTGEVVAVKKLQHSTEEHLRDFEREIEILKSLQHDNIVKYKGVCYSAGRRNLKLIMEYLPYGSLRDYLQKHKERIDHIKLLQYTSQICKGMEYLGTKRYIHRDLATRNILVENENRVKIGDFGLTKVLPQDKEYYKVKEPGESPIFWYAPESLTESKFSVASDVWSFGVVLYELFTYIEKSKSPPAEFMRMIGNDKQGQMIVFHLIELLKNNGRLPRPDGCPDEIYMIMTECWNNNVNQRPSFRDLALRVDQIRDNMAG

In the case of `N#Cc1cccc(F)c1-c1cc(-n2ccc(N3CCC[C@H](C(=O)N4CCCC4)C3)n2)c2c(n1)CNC2=O` [I-168, (S)-3-fluoro-2-(5-oxo-4-(3-(3-(pyrrolidine-1-carbonyl)piperidin-1-yl)-1H-pyrazol-1-yl)-6,7-dihydro-5H-pyrrolo[3,4-b]pyridin-2-yl)benzonitrile], the Ki at TYK2 and on JAK2 was 0.1 to 10 nM in each case. Moreover, the EC50 in assay [1] and in assay [2] was 100 to 2000 nM each time.

Consider `CS(=O)(=O)N[C@H]1CCN(c2ccn(-c3cc(-c4c(F)cccc4C#N)nc4c3C(=O)NC4)n2)C1` [I-135, (S)-N-(1-(1-(2-(2-cyano-6-fluorophenyl)-5-oxo-6,7-dihydro-5H-pyrrolo[3,4-b]pyridin-4-yl)-1H-pyrazol-3-yl)pyrrolidin-3-yl)methanesulfonamide], for which the Ki on TYK2 and at JAK2 was 0.1 to 10 nM throughout. Besides, the values for the EC50 in assay [1] and in assay [2] were more than 2000 nM and 100 to 2000 nM, respectively.

With `N#Cc1cccc(F)c1-c1cc(-n2ccc(N3CCCC3=O)n2)c2c(n1)CNC2=O` [I-139, 3-fluoro-2-(5-oxo-4-(3-(2-oxopyrrolidin-1-yl)-1H-pyrazol-1-yl)-6,7-dihydro-5H-pyrrolo[3,4-b]pyridin-2-yl)benzonitrile], the Ki at TYK2 was in the range of 0.1 to 10 nM; on JAK2 it was 10 to 100 nM. The EC50 in assay [1] and in assay [2] was 100 to 2000 nM throughout.

As to `N#Cc1cccc(F)c1-c1cc(-n2ccc(N3CC[C@H](O)[C@H](O)C3)n2)c2c(n1)CNC2=O` [I-136, 2-(4-(3-((3R,4S)-3,4-dihydroxypiperidin-1-yl)-1H-pyrazol-1-yl)-5-oxo-6,7-dihydro-5H-pyrrolo[3,4-b]pyridin-2-yl)-3-fluorobenzonitrile], the inhibitory constant (Ki) at TYK2 lay in the range of 0.009 to 0.1 nM; at JAK2 it was 0.1 to 10 nM. In addition, the EC50 in assay [1] is more than 2000 nM; in assay [2] it was 30 to 100 nM.

For `[2H]C1([2H])N(c2ccn(-c3cc(-c4c(F)cccc4C#N)nc4c3C(=O)NC4)n2)C([2H])([2H])[C@](C)(O)C([2H])([2H])C1([2H])[2H]` [I-220, (R)-3-fluoro-2-(4-(3-(3-hydroxy-3-methylpiperidin-1-yl-2,2,4,4,5,5,6,6-d8)-1H-pyrazol-1-yl)-5-oxo-6,7-dihydro-5H-pyrrolo[3,4-b]pyridin-2-yl)benzonitrile], the Ki at TYK2 fell in the range of 0.1 to 10 nM; at JAK2 it was 10 to 100 nM. Also, the EC50 in assay [1] was more than 2000 nM; in assay [2], 100 to 2000 nM.

Take `CN1CCN([C@@H]2CCCN(c3ccn(-c4cc(-c5c(F)cccc5C#N)nc5c4C(=O)NC5)n3)C2)CC1` [I-156, (R)-3-fluoro-2-(4-(3-(3-(4-methylpiperazin-1-yl)piperidin-1-yl)-1H-pyrazol-1-yl)-5-oxo-6,7-dihydro-5H-pyrrolo[3,4-b]pyridin-2-yl)benzonitrile]: the figures for the Ki at TYK2 and on JAK2 were 0.1 to 10 nM and 10 to 100 nM, respectively. Besides, the EC50 in assay [1] and in assay [2] was 100 to 2000 nM in each case.

As to `CCNC(=O)[C@@H]1CCCN(c2ccn(-c3cc(-c4c(F)cccc4C#N)nc4c3C(=O)NC4)n2)C1` [I-172, (R)-1-(1-(2-(2-cyano-6-fluorophenyl)-5-oxo-6,7-dihydro-5H-pyrrolo[3,4-b]pyridin-4-yl)-1H-pyrazol-3-yl)-N-ethylpiperidine-3-carboxamide], the Ki at TYK2 lay in the range of 0.1 to 10 nM; on JAK2, 10 to 100 nM. Further, the results for the EC50 in assay [1] and in assay [2] were more than 2000 nM and 100 to 2000 nM, respectively.

For `N#Cc1cccc(F)c1-c1cc(-n2ccc(N3CCCOCC3)n2)c2c(n1)CNC2=O` [I-83, 2-(4-(3-(1,4-oxazepan-4-yl)-1H-pyrazol-1-yl)-5-oxo-6,7-dihydro-5H-pyrrolo[3,4-b]pyridin-2-yl)-3-fluorobenzonitrile], the Ki lay within 0.1 to 10 nM at TYK2 and 10 to 100 nM at JAK2. Moreover, the EC50 in assay [1] was more than 2000 nM; in assay [2], 100 to 2000 nM.

As to `CO[C@H]1CN(c2ccn(-c3cc(-c4c(F)cccc4C#N)nc4c3C(=O)NC4)n2)CC[C@H]1O` [I-181, 3-fluoro-2-(4-(3-((3S,4R)-4-hydroxy-3-methoxypiperidin-1-yl)-1H-pyrazol-1-yl)-5-oxo-6,7-dihydro-5H-pyrrolo[3,4-b]pyridin-2-yl)benzonitrile], the figures for the Ki at TYK2 and at JAK2 were 0.1 to 10 nM and 10 to 100 nM, respectively. Moreover, the EC50 in assay [1] and in assay [2] was 100 to 2000 nM in each case.

`N#Cc1cccc(F)c1-c1cc(-n2ccc(N3CCC(O)(C(=O)N4CCCC4)C3)n2)c2c(n1)CNC2=O` (stereo not drawn) [I-191, 3-fluoro-2-(4-(3-(3-hydroxy-3-(pyrrolidine-1-carbonyl)-pyrrolidin-1-yl)-1H-pyrazol-1-yl)-5-oxo-6,7-dihydro-5H-pyrrolo[3,4-b]pyridin-2-yl)benzonitrile]: the Ki at TYK2 and at JAK2 was 0.1 to 10 nM throughout. In addition, the EC50 in assay [1] and in assay [2] was 100 to 2000 nM in each case.

Consider `N#Cc1cccc(F)c1-c1cc(-n2ccc(N3CCC[C@H](O)[C@H](O)C3)n2)c2c(n1)CNC2=O` [I-178, 2-(4-(3-((3R,4S)-3,4-dihydroxyazepan-1-yl)-1H-pyrazol-1-yl)-5-oxo-6,7-dihydro-5H-pyrrolo[3,4-b]pyridin-2-yl)-3-fluorobenzonitrile], for which the Ki on TYK2 was in the range of 0.1 to 10 nM; at JAK2, 10 to 100 nM. For the same molecule, the EC50 in assay [1] is more than 2000 nM; in assay [2] it was 100 to 2000 nM.

`N#Cc1cccc(F)c1-c1cc(-n2ccc(N3CCOCC3)n2)c2c(n1)CNC2=O` [I-4, 3-fluoro-2-(4-(3-morpholino-1H-pyrazol-1-yl)-5-oxo-6,7-dihydro-5H-pyrrolo[3,4-b]pyridin-2-yl)benzonitrile]: the Ki lay in the range of 0.1 to 10 nM on TYK2 and 10 to 100 nM at JAK2. For the same molecule, the EC50 in assay [1] is more than 2000 nM; in assay [2], 100 to 2000 nM.

On to `CN1CCN(C2CCCN(c3ccn(-c4cc(-c5c(F)cccc5C#N)nc5c4C(=O)NC5)n3)C2)CC1` (stereo not drawn) [I-147, 3-fluoro-2-(4-(3-(3-(4-methylpiperazin-1-yl)piperidin-1-yl)-1H-pyrazol-1-yl)-5-oxo-6,7-dihydro-5H-pyrrolo[3,4-b]pyridin-2-yl)benzonitrile], for which the Ki at TYK2 fell in the range of 0.1 to 10 nM; at JAK2, 10 to 100 nM. Further, the EC50 in assay [1] and in assay [2] was 100 to 2000 nM throughout.

For `N#Cc1cccc(F)c1-c1cc(-n2ccc(N3CCC[C@H](CO)C3)n2)c2c(n1)CNC2=O` [I-98, (S)-3-fluoro-2-(4-(3-(3-(hydroxymethyl)piperidin-1-yl)-1H-pyrazol-1-yl)-5-oxo-6,7-dihydro-5H-pyrrolo[3,4-b]pyridin-2-yl)benzonitrile], the Ki lay within 0.1 to 10 nM at TYK2 and 10 to 100 nM at JAK2. Moreover, the EC50 in assay [1] was 100 to 2000 nM; in assay [2], 30 to 100 nM.

As for `[2H]C([2H])([2H])C1(O)C([2H])([2H])N(c2ccn(-c3cc(-c4c(F)cccc4C#N)nc4c3C(=O)NC4)n2)C([2H])([2H])C1([2H])[2H]` (stereo not drawn) [I-196, 3-fluoro-2-(4-(3-(3-hydroxy-3-(methyl-d3)pyrrolidin-1-yl-2,2,4,4,5,5-d6)-1H-pyrazol-1-yl)-5-oxo-6,7-dihydro-5H-pyrrolo[3,4-b]pyridin-2-yl)benzonitrile], the Ki at TYK2 and at JAK2 was 0.1 to 10 nM in each case. The values for the EC50 in assay [1] and in assay [2] were 100 to 2000 nM and 30 to 100 nM, respectively.

`[2H]C1([2H])C[C@](O)(C([2H])([2H])[2H])C([2H])([2H])N1c1ccn(-c2cc(-c3c(F)cccc3C#N)nc3c2C(=O)NC3)n1` [I-184, (R)-3-fluoro-2-(4-(3-(3-hydroxy-3-(methyl-d3)pyrrolidin-1-yl-2,2,5,5-d4)-1H-pyrazol-1-yl)-5-oxo-6,7-dihydro-5H-pyrrolo[3,4-b]pyridin-2-yl)benzonitrile]: the Ki at TYK2 and on JAK2 was 0.1 to 10 nM in each case. Moreover, the 50% effective concentration (EC50) lay within 100 to 2000 nM in assay [1] and 30 to 100 nM in assay [2].

`N#Cc1cccc(F)c1-c1cc(-n2ccc(N3CC[C@H](O)C3=O)n2)c2c(n1)CNC2=O` [I-148, (S)-3-fluoro-2-(4-(3-(3-hydroxy-2-oxopyrrolidin-1-yl)-1H-pyrazol-1-yl)-5-oxo-6,7-dihydro-5H-pyrrolo[3,4-b]pyridin-2-yl)benzonitrile]: the Ki was 10 to 100 nM at TYK2 and not below 1000 nM at JAK2. Besides, the EC50 in assay [1] and in assay [2] was more than 2000 nM each time.

With `[2H]C1([2H])N(c2ccn(-c3cc(-c4c(F)cccc4C#N)nc4c3C(=O)NC4)n2)C([2H])([2H])[C@]([2H])(O)C1([2H])[2H]` [I-208, (R)-3-fluoro-2-(4-(3-(3-hydroxypyrrolidin-1-yl-2,2,3,4,4,5,5-d7)-1H-pyrazol-1-yl)-5-oxo-6,7-dihydro-5H-pyrrolo[3,4-b]pyridin-2-yl)benzonitrile], the Ki on TYK2 lay in the range of 0.1 to 10 nM; on JAK2, 10 to 100 nM. Besides, the results for the EC50 in assay [1] and in assay [2] were more than 2000 nM and 100 to 2000 nM, respectively.

As usually defined, the Ki is a measure of affinity in units of concentration, obtained from inhibition or displacement. In general, EC50 refers to the concentration giving half of the maximal effect. Low readings indicate a more potent agent, high ones a less potent agent.
